In ChEMBL document CHEMBL1138676, “Liver-selective glucocorticoid antagonists: a novel treatment for type 2 diabetes” (J Med Chem, 2004):

Assays:
[1] = target: T1, Thyroid hormone receptor beta (Homo sapiens, UniProt P10828); assay: Inhibition of human Thyroid hormone receptor beta
T1 sequence (P10828 whole entry): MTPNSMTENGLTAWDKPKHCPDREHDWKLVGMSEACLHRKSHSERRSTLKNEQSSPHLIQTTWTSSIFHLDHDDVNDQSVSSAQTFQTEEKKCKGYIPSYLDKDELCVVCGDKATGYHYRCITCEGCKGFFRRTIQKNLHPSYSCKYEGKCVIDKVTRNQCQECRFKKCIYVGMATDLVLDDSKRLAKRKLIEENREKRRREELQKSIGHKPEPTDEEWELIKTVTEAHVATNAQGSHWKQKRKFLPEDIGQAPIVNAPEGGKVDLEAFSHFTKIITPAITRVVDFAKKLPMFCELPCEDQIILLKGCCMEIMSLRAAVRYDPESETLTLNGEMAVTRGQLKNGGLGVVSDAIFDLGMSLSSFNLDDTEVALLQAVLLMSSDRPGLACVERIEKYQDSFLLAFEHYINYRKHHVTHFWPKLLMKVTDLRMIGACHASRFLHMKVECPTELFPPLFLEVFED

[2] = Inhibitory activity of the Compound against rat lymphocytes
Progesterone receptor = target: T2, Progesterone receptor (Homo sapiens, UniProt P06401); assay: Inhibition of human progesterone receptor
T2 sequence (P06401 whole entry): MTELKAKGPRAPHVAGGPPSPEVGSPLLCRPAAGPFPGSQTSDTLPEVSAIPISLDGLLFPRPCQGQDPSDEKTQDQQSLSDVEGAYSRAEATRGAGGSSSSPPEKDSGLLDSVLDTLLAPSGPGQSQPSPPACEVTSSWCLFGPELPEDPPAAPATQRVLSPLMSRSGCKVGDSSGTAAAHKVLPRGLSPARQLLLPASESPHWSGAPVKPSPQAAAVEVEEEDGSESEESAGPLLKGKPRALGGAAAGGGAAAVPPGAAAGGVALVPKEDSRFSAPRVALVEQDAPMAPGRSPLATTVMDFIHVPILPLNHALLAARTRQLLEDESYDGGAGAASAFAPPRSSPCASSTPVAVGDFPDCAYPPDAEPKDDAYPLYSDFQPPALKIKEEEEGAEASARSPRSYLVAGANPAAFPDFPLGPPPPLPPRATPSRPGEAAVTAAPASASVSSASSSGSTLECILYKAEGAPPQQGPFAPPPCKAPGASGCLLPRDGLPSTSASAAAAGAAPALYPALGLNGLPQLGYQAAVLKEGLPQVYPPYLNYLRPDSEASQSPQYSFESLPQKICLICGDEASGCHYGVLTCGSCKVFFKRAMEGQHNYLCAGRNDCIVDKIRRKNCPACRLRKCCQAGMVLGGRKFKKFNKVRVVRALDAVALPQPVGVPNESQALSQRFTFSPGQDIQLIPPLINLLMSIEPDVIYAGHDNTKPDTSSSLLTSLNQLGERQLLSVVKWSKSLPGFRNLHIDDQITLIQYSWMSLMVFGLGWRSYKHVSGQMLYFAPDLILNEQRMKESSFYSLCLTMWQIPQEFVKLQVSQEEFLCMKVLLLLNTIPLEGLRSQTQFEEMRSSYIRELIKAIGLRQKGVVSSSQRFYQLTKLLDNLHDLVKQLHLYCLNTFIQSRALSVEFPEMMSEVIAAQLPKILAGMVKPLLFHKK

[3] = target: T3, Mineralocorticoid receptor (Homo sapiens, UniProt P08235)
T3 sequence (P08235 whole entry): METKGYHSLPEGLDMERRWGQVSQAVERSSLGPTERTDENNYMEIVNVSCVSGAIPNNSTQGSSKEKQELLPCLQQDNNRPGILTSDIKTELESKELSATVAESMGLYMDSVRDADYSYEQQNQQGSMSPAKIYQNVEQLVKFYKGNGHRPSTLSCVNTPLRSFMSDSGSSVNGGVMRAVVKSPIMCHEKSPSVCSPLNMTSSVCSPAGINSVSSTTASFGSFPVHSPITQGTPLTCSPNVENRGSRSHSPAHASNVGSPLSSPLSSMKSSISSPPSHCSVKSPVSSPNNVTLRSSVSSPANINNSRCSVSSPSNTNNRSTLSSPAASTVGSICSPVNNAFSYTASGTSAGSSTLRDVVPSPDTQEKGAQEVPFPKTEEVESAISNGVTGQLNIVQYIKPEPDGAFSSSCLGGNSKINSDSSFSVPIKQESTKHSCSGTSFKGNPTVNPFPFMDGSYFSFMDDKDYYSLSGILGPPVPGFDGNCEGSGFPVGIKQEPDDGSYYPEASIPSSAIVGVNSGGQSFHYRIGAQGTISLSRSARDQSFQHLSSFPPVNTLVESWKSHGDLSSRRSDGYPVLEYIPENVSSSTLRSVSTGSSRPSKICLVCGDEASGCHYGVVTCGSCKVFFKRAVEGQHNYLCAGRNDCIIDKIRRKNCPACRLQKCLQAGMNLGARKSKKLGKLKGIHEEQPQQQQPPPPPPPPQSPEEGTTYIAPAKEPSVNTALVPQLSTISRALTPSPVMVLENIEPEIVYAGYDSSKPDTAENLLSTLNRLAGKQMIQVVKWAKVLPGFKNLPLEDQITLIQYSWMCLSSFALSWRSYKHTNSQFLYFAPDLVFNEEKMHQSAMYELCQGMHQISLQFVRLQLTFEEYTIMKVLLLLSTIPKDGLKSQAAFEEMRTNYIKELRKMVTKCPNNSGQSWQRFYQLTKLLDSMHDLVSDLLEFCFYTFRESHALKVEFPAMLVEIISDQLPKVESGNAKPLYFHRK
Description: Inhibition of human Mineralocorticoid receptor

Estrogen receptor beta = Estrogen receptor beta (Homo sapiens, UniProt Q92731); assay: Inhibition of human Estrogen receptor beta
[4] = Inhibitory activity against rat lymphocytes; set-up: concentration or dose not given beside the values
[5] = target: Glucocorticoid receptor (Rattus norvegicus) (UniProt P06536); assay: Inhibition of glucocorticoid receptor mediated tyrosine aminotransferase activity; set-up: concentration or dose not given beside the values; conditions: concentration not given here
Sequence of Glucocorticoid receptor (Rattus norvegicus) (P06536 whole entry, looked up): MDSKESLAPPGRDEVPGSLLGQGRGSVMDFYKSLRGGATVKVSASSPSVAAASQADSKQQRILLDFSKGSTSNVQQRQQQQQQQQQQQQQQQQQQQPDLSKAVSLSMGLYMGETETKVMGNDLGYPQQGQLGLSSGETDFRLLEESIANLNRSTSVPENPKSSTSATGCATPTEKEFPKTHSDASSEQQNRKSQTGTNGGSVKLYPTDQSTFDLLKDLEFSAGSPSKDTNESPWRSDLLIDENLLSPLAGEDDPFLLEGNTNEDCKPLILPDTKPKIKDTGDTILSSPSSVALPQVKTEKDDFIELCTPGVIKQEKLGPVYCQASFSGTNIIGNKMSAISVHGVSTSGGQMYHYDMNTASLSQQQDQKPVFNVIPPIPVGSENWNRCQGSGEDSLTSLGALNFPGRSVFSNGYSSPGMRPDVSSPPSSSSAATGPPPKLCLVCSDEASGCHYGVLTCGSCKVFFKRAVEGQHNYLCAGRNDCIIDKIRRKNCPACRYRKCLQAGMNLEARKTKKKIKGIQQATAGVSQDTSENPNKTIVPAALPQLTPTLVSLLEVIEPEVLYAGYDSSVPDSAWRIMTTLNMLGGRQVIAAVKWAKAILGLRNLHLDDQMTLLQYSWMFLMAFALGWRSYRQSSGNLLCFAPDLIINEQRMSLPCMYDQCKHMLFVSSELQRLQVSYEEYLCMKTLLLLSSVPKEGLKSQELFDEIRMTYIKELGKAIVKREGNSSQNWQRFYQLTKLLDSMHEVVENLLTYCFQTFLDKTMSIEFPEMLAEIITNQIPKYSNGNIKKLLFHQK

Sequence of Estrogen receptor beta (Q92731 whole entry): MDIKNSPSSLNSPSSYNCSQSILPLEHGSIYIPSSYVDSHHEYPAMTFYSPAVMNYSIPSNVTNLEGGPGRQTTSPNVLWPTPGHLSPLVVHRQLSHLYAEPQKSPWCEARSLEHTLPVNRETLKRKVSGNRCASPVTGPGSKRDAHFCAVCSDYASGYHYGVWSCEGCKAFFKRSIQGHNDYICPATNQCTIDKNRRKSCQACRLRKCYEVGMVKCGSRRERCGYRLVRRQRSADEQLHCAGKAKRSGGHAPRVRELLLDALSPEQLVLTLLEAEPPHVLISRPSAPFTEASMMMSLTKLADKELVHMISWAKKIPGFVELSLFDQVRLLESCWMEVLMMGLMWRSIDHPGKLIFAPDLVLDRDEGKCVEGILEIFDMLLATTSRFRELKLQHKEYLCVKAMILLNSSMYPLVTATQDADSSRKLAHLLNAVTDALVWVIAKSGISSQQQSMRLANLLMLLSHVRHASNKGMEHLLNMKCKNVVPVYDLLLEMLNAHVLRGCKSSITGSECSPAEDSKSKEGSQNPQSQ

| Structure (SMILES) | Ki [1] | Inhibition [2] | Ki (Progesterone receptor) | Ki [3] | Ki (Estrogen receptor beta) | Inhibition [4] | inhibition [5] |
| --- | --- | --- | --- | --- | --- | --- | --- |
| C#C[C@]1(O)CC[C@H]2[C@@H]3CCC4=CC(=O)CCC4=C3[C@@H](c3ccc(N(C)CCNC(=O)OC4CC[C@@]5(C)[C@@H](C4)C[C@@H](O)[C@@H]4[C@@H]5C[C@H](O)[C@]5(C)[C@@H]([C@H](C)CCC(=O)O)CC[C@@H]45)cc3)C[C@@]21C (some centres not stated) | > 2.25 µM | 14% | 0.00039 µM | > 1 µM | > 0.75 µM | – | – |
| C#C[C@]1(O)CC[C@H]2[C@@H]3CCC4=CC(=O)CCC4=C3[C@@H](c3ccc(N(C)C(=O)CNC(=O)OC4CC[C@@]5(C)[C@@H](C4)C[C@@H](O)[C@@H]4[C@@H]5C[C@H](O)[C@]5(C)[C@@H]([C@H](C)CCC(=O)O)CC[C@@H]45)cc3)C[C@@]21C (some centres not stated) | > 2.25 µM | – | 0.0024 µM | 0.31 µM | 0.16 µM | – | – |
| C#C[C@]1(O)CC[C@H]2[C@@H]3CCC4=CC(=O)CCC4=C3[C@@H](c3ccc(N(C)CCC[C@H]4[C@H](O)CC[C@@]5(C)[C@@H]4C[C@@H](O)[C@@H]4[C@@H]5C[C@H](O)[C@]5(C)[C@@H]([C@H](C)CCC(=O)O)CC[C@@H]45)cc3)C[C@@]21C | – | – | 0.0021 µM | > 1 µM | 0.048 µM | – | – |
| C#C[C@]1(O)CC[C@H]2[C@@H]3CCC4=CC(=O)CCC4=C3[C@@H](c3ccc(N(C)CCNC(=O)N(C)C4CC[C@@]5(C)[C@@H](C4)C[C@@H](O)[C@@H]4[C@@H]5C[C@H](O)[C@]5(C)[C@@H]([C@H](C)CCC(=O)O)CC[C@@H]45)cc3)C[C@@]21C (some centres not stated) | > 2.25 µM | – | 0.0035 µM | 0.85 µM | 0.19 µM | – | – |
| C#C[C@]1(O)CC[C@H]2[C@@H]3CCC4=CC(=O)CCC4=C3[C@@H](c3ccc(N(C)CCCOC4CC[C@@]5(C)[C@@H](C4)C[C@@H](O)[C@@H]4[C@@H]5C[C@H](O)[C@]5(C)[C@@H]([C@H](C)CCC(=O)O)CC[C@@H]45)cc3)C[C@@]21C (some centres not stated) | 1.9 µM | – | 0.0011 µM | 0.08 µM | 0.013 µM | -5% | 64% |
| C#C[C@]1(O)CC[C@H]2[C@@H]3CCC4=CC(=O)CCC4=C3[C@@H](c3ccc(N(C)CCOC4CC[C@@]5(C)[C@@H](C4)C[C@@H](O)[C@@H]4[C@@H]5C[C@H](O)[C@]5(C)[C@@H]([C@H](C)CCC(=O)NCC(=O)O)CC[C@@H]45)cc3)C[C@@]21C (some centres not stated) | > 2.25 µM | – | 0.001 µM | 0.51 µM | – | – | – |
| C#C[C@]1(O)CC[C@H]2[C@@H]3CCC4=CC(=O)CCC4=C3[C@@H](c3ccc(N(C)C(=O)CNC(=O)O[C@@H]4C[C@@H]5CC(O)CC[C@]5(C)[C@H]5C[C@H](O)[C@]6(C)[C@@H]([C@H](C)CCC(=O)O)CC[C@H]6[C@H]45)cc3)C[C@@]21C (some centres not stated) | > 2.25 µM | – | 0.0044 µM | > 1 µM | > 0.75 µM | – | – |
| C#C[C@]1(O)CC[C@H]2[C@@H]3CCC4=CC(=O)CCC4=C3[C@@H](c3ccc(N(C)CCOCCO[C@H]4CC[C@@]5(C)[C@@H](C4)C[C@@H](O)[C@@H]4[C@@H]5C[C@H](O)[C@]5(C)[C@@H]([C@H](C)CCC(=O)O)CC[C@@H]45)cc3)C[C@@]21C | > 2.25 µM | – | 0.00048 µM | 0.15 µM | 0.051 µM | 43% | 60% |
| C#C[C@]1(O)CC[C@H]2[C@@H]3CCC4=CC(=O)CCC4=C3[C@@H](c3ccc(N(C)C(C)=O)cc3)C[C@@]21C | > 2.25 µM | – | 0.0064 µM | > 1 µM | 0.57 µM | – | – |
| C#C[C@]1(O)CC[C@H]2[C@@H]3CCC4=CC(=O)CCC4=C3[C@@H](c3ccc(N(C)CCCS(=O)(=O)N(C)C4CC[C@@]5(C)[C@@H](C4)C[C@@H](O)[C@@H]4[C@@H]5C[C@H](O)[C@]5(C)[C@@H]([C@H](C)CCC(=O)O)CC[C@@H]45)cc3)C[C@@]21C (some centres not stated) | – | – | 0.0019 µM | 0.3 µM | 0.039 µM | 9% | – |
| C#C[C@]1(O)CC[C@H]2[C@@H]3CCC4=CC(=O)CCC4=C3[C@@H](c3ccc(N(C)CCOC4CC[C@@]5(C)[C@@H](C4)C[C@@H](O)[C@@H]4[C@@H]5C[C@H](O)[C@]5(C)[C@@H]([C@H](C)CCC(=O)NCCS(=O)(=O)O)CC[C@@H]45)cc3)C[C@@]21C (some centres not stated) | > 2.25 µM | – | 0.00053 µM | 0.14 µM | 0.03 µM | – | – |
| C#C[C@]1(O)CC[C@H]2[C@@H]3CCC4=CC(=O)CCC4=C3[C@@H](c3ccc(N(C)CCOC4CC[C@@]5(C)[C@@H](C4)C[C@@H](O)[C@@H]4[C@@H]5C[C@H](O)[C@]5(C)[C@@H]([C@H](C)CCC(=O)O)CC[C@@H]45)cc3)C[C@@]21C (stereo in doubt; form 2) | 1.5 µM | – | 0.00081 µM | 0.44 µM | 0.11 µM | 9% | – |
| C#C[C@]1(O)CC[C@H]2[C@@H]3CCC4=CC(=O)CCC4=C3[C@@H](c3ccc(N(C)CCOC4CC[C@@]5(C)[C@@H](C4)C[C@@H](O)[C@@H]4[C@@H]5C[C@H](O)[C@]5(C)[C@@H]([C@H](C)CCC(=O)O)CC[C@@H]45)cc3)C[C@@]21C (stereo in doubt; form 1) | > 2.25 µM | – | 0.0033 µM | > 1 µM | 0.089 µM | -14% | – |
| C#C[C@]1(O)CC[C@H]2[C@@H]3CCC4=CC(=O)CCC4=C3[C@@H](c3ccc(N(C)CCCC(=O)N(C)C4CC[C@@]5(C)[C@@H](C4)C[C@@H](O)[C@@H]4[C@@H]5C[C@H](O)[C@]5(C)[C@@H]([C@H](C)CCC(=O)O)CC[C@@H]45)cc3)C[C@@]21C (some centres not stated) | > 2.25 µM | – | 0.00096 µM | 0.19 µM | 0.013 µM | 4% | 11% |
| C#C[C@]1(O)CC[C@H]2[C@@H]3CCC4=CC(=O)CCC4=C3[C@@H](c3ccc(N(C)C(=O)CC[C@H](NC(=O)CC[C@@H](C)[C@H]4CC[C@H]5[C@@H]6[C@H](O)C[C@@H]7C[C@H](O)CC[C@]7(C)[C@H]6C[C@H](O)[C@]45C)C(=O)O)cc3)C[C@@]21C | > 2.25 µM | – | 0.0012 µM | 0.59 µM | 0.24 µM | – | – |
